Key:
[1] = biological target: T1, HvMsrA (MsrA-StrepII) (Haloferax volcanii, UniProt D4GQQ9); experiment: MSO-peptide reductase assay, HPLC of dabsyl-Met; assay type: biochemical
T1 construct: gene msrA1; C-terminal StrepII tag; expressed in E. coli Rosetta (DE3), Strep-Tactin and Superdex 75 purified; 21 kDa
T1 sequence (D4GQQ9 1-189): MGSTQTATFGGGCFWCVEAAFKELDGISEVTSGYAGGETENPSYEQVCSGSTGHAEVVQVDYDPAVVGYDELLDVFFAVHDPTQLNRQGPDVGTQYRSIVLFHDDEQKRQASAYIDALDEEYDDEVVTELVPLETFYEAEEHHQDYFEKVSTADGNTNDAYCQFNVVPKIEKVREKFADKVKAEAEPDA

[2] = biological target: T2, HvMsrB (MsrB-StrepII) (Haloferax volcanii, UniProt D4GVV0); experiment: MSO-peptide reductase assay of cell lysate, HPLC of dabsyl-Met; assay type: biochemical; details: 400 µg cell extract, 200 µM dabsyl-MSO, 20 mM DTT, 25 mM Tris-Cl pH 7.5, 37°C
T2 construct: StrepII-tagged, expressed from plasmid in Hfx. volcanii deletion strains; cell lysate
T2 sequence (D4GVV0 entry or part of it): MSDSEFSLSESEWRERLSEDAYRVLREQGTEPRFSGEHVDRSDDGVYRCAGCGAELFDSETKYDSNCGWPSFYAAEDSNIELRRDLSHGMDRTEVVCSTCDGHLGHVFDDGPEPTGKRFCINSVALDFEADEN

SMILES | MSO-peptide reductase assay, HPLC of dabsyl-Met ([1]; inhibitor, 0 to 20 mM MSO, dabsyl-MSO substrate, DTT, Tris-Cl pH 7.5, NaCl 0.2 to 2 M, 37°C, probably competing substrate) | MSO-peptide reductase assay, HPLC of dabsyl-Met ([1]; 200 µM dabsyl-MSO, 20 mM DTT, 25 mM Tris-Cl pH 7.5, 37°C, 30 min) | MSO-peptide reductase assay of cell lysate, HPLC of dabsyl-Met [2]
C[S+]([O-])CC[C@H](N)C(=O)O (stereo partly drawn) [MSO] | DMSO and MSO inhibited the MSO-peptide reductase activity of HvMsrA in a dose-dependent manner |  | 
CN(C)c1ccc(N=Nc2ccc(S(=O)(=O)N[C@@H](CC[S+](C)[O-])C(=O)O)cc2)cc1 (stereo partly drawn) [dabsyl-MSO] |  | HvMsrA was found to catalyze the reduction of the MSO peptide | HvMsrB was also found to catalyze MSO-peptide reductase activity

Source: publication PMC5587910, “Methionine Sulfoxide Reductase A (MsrA) and Its Function in Ubiquitin-Like Protein Modification in Archaea” (mBio, 2017)
